From patent US20110230481A2, “DERIVATIVES OF TETRABROMOBENZIMIDAZOLE, A PROCESS FOR THE PREPARATION THEREOF, A PHARMACEUTICAL COMPOSITION COMPRISING THE SAME, A METHOD OF USING THE SAME, A METHOD FOR MODULATING OR REGULATING SERINE/THREONINE KINASES, AND SERINE/THREONINE KINASES MODULATING AGENT” (SELVITA S.A., priority 2009, published 2011)

What was measured:
Assay in all cases: KINOMEscan Max
Type in all cases: binding
[1] = target: T1, DYRK1B (Homo sapiens, UniProt Q9Y463)
T1 construct: DNA tag (qPCR read-out); purchased Ambit Kinomescan
Summary of the method: (§1)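 In this platform each kinase carries a DNA tag and is offered an immobilized ligand aimed at the active site; test compound competes for binding, and the amount of kinase held on the ligand is measured by qPCR.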

[2] = target: MLCK (Homo sapiens, UniProt Q32MK0)
Summary of the method: as §1

[3] = target: PKMYT1 (Homo sapiens, UniProt Q99640); details: 1 μM
Summary of the method: as §1

[4] = target: T2, SRC (Homo sapiens, UniProt P12931)
T2 construct: purchased Ambit Kinomescan (contract screening)
T2 sequence (P12931 whole entry): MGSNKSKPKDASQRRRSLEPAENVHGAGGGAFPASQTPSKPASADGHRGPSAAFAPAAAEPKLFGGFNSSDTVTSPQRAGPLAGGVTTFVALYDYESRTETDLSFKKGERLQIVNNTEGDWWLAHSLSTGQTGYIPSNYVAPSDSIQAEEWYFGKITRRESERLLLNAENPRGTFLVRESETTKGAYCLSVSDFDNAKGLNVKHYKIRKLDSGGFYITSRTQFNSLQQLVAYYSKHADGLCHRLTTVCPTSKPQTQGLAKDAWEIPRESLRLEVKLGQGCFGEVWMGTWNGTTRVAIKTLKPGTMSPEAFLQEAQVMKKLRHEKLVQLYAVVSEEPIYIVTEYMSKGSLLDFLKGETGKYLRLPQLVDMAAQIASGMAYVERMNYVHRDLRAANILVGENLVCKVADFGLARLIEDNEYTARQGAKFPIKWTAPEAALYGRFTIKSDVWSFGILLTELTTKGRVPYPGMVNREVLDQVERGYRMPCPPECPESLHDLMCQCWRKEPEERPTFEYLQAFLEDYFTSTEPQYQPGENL
Summary of the method: as §1

[5] = target: T3, ERK5 (Homo sapiens, UniProt Q13164)
T3 construct: purchased Ambit Kinomescan (contract panel, KINOMEscan Max)
Summary of the method: as §1

[6] = target: T4, CDK4-cyclinD1 (Homo sapiens, UniProt P11802)
T4 construct: DNA tag (qPCR label); purchased Ambit Kinomescan (contract screening)
T4 sequence (P11802 whole entry): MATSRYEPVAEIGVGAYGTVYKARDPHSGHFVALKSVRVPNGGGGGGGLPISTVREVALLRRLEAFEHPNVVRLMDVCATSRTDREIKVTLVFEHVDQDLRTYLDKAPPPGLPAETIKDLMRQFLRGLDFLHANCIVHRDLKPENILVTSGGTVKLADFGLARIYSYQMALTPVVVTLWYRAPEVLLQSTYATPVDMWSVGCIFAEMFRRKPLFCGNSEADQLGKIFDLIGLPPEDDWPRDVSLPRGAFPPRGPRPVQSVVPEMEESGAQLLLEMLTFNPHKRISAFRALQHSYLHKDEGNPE
T4 sequence (P24385 whole entry partner): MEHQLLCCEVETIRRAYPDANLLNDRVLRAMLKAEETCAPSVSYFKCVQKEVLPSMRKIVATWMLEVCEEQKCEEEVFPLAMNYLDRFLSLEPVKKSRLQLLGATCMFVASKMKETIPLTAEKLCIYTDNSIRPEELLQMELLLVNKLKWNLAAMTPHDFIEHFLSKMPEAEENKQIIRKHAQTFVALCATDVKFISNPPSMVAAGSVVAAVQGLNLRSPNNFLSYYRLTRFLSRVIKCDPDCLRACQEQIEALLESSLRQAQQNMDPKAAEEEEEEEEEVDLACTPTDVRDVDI
Summary of the method: as §1

[7] = target: T5, PIP5K2C (Homo sapiens, UniProt Q8TBX8)
T5 construct: DNA tag (qPCR read-out)
T5 sequence (Q8TBX8 whole entry): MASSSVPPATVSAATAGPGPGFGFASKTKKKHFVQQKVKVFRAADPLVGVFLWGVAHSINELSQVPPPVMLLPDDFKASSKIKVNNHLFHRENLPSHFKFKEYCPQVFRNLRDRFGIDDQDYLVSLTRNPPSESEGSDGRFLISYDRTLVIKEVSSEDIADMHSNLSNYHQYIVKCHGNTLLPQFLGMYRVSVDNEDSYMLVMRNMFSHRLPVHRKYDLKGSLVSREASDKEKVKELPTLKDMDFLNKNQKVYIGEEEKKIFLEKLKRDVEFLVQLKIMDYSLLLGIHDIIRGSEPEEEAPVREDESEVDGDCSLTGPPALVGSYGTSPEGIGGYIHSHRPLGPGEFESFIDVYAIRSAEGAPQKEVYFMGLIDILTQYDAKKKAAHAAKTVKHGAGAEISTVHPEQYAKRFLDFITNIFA
Summary of the method: as §1

[8] = target: T6, SIK (Homo sapiens, UniProt P57059); details: 1 μM
T6 construct: DNA tag (qPCR read-out)
Summary of the method: as §1

[9] = target: T7, RET (Homo sapiens, UniProt P07949)
T7 construct: DNA tag (qPCR read-out)
Summary of the method: as §1

[10] = target: PKNB(M.tuberculosis) (Mycobacterium tuberculosis, UniProt P9WI81)
[11] = target: ABL1(Q252H)-phosphorylated (Homo sapiens, UniProt P00519, Q252H)
Summary of the method: as §1

[12] = target: T8, ULK1 (Homo sapiens, UniProt O75385); details: 1 μM
T8 construct: DNA tag (qPCR read-out)
Summary of the method: as §1

[13] = target: YANK3 (Homo sapiens, UniProt Q86UX6)
Summary of the method: as §1

[14] = target: T9, JAK1(JH1domain-catalytic) (Homo sapiens, UniProt P23458); details: 1 μM
T9 construct: JAK1(JH1domain-catalytic); purchased Ambit (KINOMEscan Max service)
Summary of the method: as §1

[15] = target: T10, LYN (Homo sapiens, UniProt P07948)
T10 construct: purchased Ambit Kinomescan (contract panel)
T10 sequence (P07948 whole entry): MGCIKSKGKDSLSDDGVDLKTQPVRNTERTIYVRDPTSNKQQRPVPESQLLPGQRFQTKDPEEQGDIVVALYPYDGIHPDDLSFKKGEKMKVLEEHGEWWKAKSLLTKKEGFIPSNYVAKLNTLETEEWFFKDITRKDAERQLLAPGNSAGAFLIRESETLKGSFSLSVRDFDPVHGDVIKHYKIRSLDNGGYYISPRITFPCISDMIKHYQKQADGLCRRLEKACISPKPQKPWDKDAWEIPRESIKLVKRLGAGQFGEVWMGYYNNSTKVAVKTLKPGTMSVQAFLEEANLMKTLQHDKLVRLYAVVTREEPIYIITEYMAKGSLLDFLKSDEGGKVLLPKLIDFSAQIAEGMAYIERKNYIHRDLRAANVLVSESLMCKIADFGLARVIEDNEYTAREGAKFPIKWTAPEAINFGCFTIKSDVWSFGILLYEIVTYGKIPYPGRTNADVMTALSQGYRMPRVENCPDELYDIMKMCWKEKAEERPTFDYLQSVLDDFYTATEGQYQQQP
Summary of the method: as §1

[16] = target: ABL1(Y253F)-phosphorylated (Homo sapiens, UniProt P00519, Y253F)
Summary of the method: as §1

[17] = target: WEE1 (Homo sapiens, UniProt P30291)
Summary of the method: as §1

[18] = target: MST1 (Homo sapiens, UniProt Q13043); details: 1 μM
Summary of the method: as §1

[19] = target: T11, PAK2 (Homo sapiens, UniProt Q13177)
T11 construct: purchased Ambit (KINOMEscan Max service)
T11 sequence (Q13177 whole entry): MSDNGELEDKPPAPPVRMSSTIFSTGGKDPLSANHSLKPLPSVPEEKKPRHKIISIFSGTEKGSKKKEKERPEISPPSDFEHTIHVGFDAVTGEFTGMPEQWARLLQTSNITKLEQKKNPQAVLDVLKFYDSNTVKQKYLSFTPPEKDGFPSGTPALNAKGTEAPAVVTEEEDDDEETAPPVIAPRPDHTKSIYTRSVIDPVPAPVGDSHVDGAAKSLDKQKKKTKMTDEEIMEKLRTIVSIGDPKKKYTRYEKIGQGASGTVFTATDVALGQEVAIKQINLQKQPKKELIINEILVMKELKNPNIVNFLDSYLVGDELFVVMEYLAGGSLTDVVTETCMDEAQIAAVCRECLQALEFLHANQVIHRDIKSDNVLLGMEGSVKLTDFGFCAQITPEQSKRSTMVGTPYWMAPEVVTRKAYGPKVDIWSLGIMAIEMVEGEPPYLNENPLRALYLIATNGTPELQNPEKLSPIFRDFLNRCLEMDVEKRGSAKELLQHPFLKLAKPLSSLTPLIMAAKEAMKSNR
Summary of the method: as §1

[20] = target: T12, CSF1R (Homo sapiens, UniProt P07333)
T12 construct: purchased Ambit (KINOMEscan Max panel service)
Summary of the method: as §1

[21] = target: T13, PKAC-beta (Homo sapiens, UniProt P22694)
T13 construct: purchased Ambit (KINOMEscan Max service)
Summary of the method: as §1

[22] = target: T14, CAMK2B (Homo sapiens, UniProt Q13554)
T14 construct: purchased Ambit Kinomescan (contract screening)
T14 sequence (Q13554 whole entry): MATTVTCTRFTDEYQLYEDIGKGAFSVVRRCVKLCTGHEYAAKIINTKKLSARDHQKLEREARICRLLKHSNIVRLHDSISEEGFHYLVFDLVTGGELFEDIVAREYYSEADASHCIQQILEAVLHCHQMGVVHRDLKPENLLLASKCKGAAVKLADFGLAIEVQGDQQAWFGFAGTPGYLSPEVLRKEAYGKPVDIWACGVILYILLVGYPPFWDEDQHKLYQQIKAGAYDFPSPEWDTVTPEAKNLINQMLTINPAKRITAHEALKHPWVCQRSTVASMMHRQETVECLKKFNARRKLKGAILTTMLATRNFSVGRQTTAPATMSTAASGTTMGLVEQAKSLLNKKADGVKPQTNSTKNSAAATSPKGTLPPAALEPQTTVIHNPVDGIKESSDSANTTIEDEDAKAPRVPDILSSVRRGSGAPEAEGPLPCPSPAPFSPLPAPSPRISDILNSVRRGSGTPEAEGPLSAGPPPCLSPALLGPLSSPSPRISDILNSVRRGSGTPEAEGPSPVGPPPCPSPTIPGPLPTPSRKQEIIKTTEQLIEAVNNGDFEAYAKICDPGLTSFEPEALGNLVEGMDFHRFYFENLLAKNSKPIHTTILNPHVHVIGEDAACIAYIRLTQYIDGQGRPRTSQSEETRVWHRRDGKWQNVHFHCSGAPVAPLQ
Summary of the method: as §1

[23] = target: AKT2 (Homo sapiens, UniProt P31751)
Summary of the method: as §1

[24] = target: T15, CDC2L2 (Homo sapiens, UniProt Q9UQ88)
T15 construct: purchased Ambit (KINOMEscan Max service)
T15 sequence (Q9UQ88 whole entry): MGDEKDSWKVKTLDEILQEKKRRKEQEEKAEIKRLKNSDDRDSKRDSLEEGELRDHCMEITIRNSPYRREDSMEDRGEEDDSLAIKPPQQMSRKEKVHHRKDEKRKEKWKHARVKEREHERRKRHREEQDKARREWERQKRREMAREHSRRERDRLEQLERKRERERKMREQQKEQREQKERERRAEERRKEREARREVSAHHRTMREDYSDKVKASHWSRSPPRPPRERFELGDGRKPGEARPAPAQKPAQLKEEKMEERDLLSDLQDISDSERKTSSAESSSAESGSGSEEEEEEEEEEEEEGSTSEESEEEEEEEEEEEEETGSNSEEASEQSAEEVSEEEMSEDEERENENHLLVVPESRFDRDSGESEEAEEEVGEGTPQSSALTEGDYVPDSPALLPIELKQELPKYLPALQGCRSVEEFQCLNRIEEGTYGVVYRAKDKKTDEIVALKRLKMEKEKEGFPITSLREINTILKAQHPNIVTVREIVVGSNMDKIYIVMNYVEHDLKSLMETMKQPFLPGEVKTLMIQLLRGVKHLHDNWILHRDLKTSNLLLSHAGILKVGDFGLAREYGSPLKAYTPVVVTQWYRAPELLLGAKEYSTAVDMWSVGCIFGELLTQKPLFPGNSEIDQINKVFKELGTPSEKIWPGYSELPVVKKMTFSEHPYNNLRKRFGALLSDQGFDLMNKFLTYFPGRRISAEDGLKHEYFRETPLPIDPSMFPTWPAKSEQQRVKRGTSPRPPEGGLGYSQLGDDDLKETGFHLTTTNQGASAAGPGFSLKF
Summary of the method: as §1

[25] = target: T16, TIE1 (Homo sapiens, UniProt P35590)
T16 construct: purchased Ambit Kinomescan (contract screening service)
Summary of the method: as §1

[26] = target: T17, LRRK2(G2019S) (Homo sapiens, UniProt Q5S007, G2019S)
T17 construct: purchased Ambit (KINOMEscan Max service)
Summary of the method: as §1

[27] = target: FGFR2 (Homo sapiens, UniProt P21802)
Summary of the method: as §1

[28] = target: T18, PIK3CA(I800L) (Homo sapiens, UniProt P42336, I800L)
T18 construct: DNA tag (qPCR read-out)
Summary of the method: as §1

[29] = target: EPHB6 (Homo sapiens, UniProt O15197)
Summary of the method: as §1

[30] = target: p38-alpha (Homo sapiens, UniProt Q16539); details: 1 μM
Summary of the method: as §1

[31] = target: MAP4K2 (Homo sapiens, UniProt Q12851)
Summary of the method: as §1

[32] = target: T19, TYRO3 (Homo sapiens, UniProt Q06418)
T19 construct: purchased Ambit Kinomescan (contract screening service)
Summary of the method: as §1

[33] = target: T20, STK39 (Homo sapiens, UniProt Q9UEW8)
T20 construct: DNA tag (qPCR read-out)
Summary of the method: as §1

[34] = target: T21, DDR1 (Homo sapiens, UniProt Q08345)
T21 construct: purchased Ambit (KINOMEscan Max panel service)
T21 sequence (Q08345 19-913): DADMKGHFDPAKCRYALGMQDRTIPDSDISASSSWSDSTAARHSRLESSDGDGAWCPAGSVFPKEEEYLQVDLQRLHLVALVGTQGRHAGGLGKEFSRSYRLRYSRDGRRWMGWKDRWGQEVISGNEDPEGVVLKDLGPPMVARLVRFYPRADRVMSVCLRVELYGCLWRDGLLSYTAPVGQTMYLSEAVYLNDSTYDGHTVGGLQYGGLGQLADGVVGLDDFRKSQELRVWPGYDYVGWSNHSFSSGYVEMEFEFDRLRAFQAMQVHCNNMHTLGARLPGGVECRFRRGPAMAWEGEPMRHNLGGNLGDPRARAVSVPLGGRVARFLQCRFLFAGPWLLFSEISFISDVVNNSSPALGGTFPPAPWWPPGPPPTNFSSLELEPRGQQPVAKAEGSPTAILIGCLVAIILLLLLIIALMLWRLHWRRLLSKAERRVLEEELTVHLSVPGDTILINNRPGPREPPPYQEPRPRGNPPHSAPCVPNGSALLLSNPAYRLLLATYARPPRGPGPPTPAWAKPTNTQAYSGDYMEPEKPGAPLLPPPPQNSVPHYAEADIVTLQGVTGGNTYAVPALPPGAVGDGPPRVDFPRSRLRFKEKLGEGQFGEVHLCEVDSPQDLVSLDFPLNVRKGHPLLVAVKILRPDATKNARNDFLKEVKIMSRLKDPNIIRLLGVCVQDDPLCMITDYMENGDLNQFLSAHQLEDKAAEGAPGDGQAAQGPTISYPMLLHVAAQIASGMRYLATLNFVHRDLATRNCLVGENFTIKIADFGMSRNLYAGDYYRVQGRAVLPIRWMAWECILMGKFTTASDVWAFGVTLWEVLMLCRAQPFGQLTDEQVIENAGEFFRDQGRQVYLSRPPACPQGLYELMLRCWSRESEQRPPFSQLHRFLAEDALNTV
Summary of the method: as §1

For `NCCCNc1nc2c(Br)c(Br)c(Br)c(Br)c2[nH]1` [Compound 11, N-(3-aminopropyl)-4,5,6,7-tetrabromo-1H-benzo[d]imidazol-2-amine], the remaining binding at 1 µM [1] was 7.4%, the remaining binding at 1 µM [2] was 92% and the “% binding” value [3] was 99%. For the same compound, the remaining binding at 1 µM [4] was 97%, the remaining binding at 1 µM [5] was 100% and the remaining binding at 1 µM [6] was 100%. For the same compound, the remaining binding at 1 µM [7] was 56%, the “% binding” value [8] was 100% and the remaining binding at 1 µM [9] was 100%. The remaining binding at 1 µM [10] was 91%, the remaining binding at 1 µM [11] was 100% and the “% binding” value [12] was 30%. For the same compound, the remaining binding at 1 µM [13] was 93%, the “% binding” value [14] was 86% and the remaining binding at 1 µM [15] was 100%. For the same compound, the remaining binding at 1 µM [16] was 100%, the remaining binding at 1 µM [17] was 91% and the “% binding” value [18] was 100%. It also gave a remaining binding at 1 µM [19] of 64%, a remaining binding at 1 µM [20] of 100% and a remaining binding at 1 µM [21] of 84%. The remaining binding at 1 µM [22] was 97%, the remaining binding at 1 µM [23] was 99% and the remaining binding at 1 µM [24] was 82%. It also gave a remaining binding at 1 µM [25] of 100%, a remaining binding at 1 µM [26] of 70% and a remaining binding at 1 µM [27] of 77%. The remaining binding at 1 µM [28] was 100%, the remaining binding at 1 µM [29] was 95% and the “% binding” value [30] was 100%. It also gave a remaining binding at 1 µM [31] of 78%, a remaining binding at 1 µM [32] of 100% and a remaining binding at 1 µM [33] of 100%. For the same compound, the remaining binding at 1 µM [34] was 100%.
